The subject of one data set is African trypanosomes. Set-up: method as in PMID 18722336, PMID 19620327. To be noted: oral administration; cited from earlier work.
A further data set relates to T. b. rhodesiense. The note with it: oral prodrug; cited from earlier work.
In data set [1] the test system is T. b. rhodesiense KETRI 2537. Put plainly: Efficacy in KETRI vervet monkey model of second stage HAT. The format is in vivo. The text has this:
The current study used the KETRI vervet monkey model of HAT, a model developed over 30 years ago through the experimental infection of vervet monkeys with T. b. rhodesiense. […] Trypanosomes were identified in peripheral blood first and cerebrospinal fluid (CSF) second, allowing the disease to be classified into an early (haemo-lymphatic) and a late (central nervous system [CNS]) stage, similar to the human disease. […] Monkey trypanosomal infections have been determined to be invariably fatal without therapeutic intervention, a characteristic also widely accepted as true for human sleeping sickness.
Parasitaemia and CSF parasitosis were monitored using established techniques for blood trypanosomes and CSF trypanosomes, respectively.
Due to a regulated freeze on acquisitions of new non-human primates, only six monkeys were available for the IM DB829 study. These animals were divided into three treatment groups, each consisting of one male and one female, to compare dose-responsiveness between consecutive- and alternate-day dosing. Monkeys were treated with 2.5 or 5 mg/kg/day for 5 consecutive days or with 5 mg/kg/day on alternating days for a total of 5 doses (Table 1).
Twelve additional monkeys were available for the oral DB868 efficacy study. These animals were, before infection, divided into three groups, each consisting of two males and two females. DB868 was administered orally to each group at 3, 10 or 20 mg/kg/day for 10 consecutive days (Table 2).
Parasitaemia post-infection was monitored daily, using ear-prick capillary blood, through the completion of DB868 and DB829 treatment. […] At 300 days post-LDD, monkeys were considered cured if they remained normal clinically and parasite-free in the blood and CSF. Pharmacokinetic outcomes were monitored for a minimum of 60 days post-LDD as described previously. […] Monkeys that relapsed, characterized by trypanosome recrudescence in the blood or CSF, were rescue-treated with melarsoprol.

Data set [2] can be described thus: Plasma pharmacokinetics in infected vervet monkeys (HPLC-MS/MS). The format is in vivo, vervet monkey. The note with it: for geometric mean plasma concentration (range) of prodrug DB868: within 1 h post-LDD. The source says: (§1) Parasitaemia post-infection was monitored daily, using ear-prick capillary blood, through the completion of DB868 and DB829 treatment. Following the last drug dose (LDD), blood and CSF samples were examined for trypanosomes at 1, 4, 7, and 14 days to determine the end of treatment (EoT) response; monkeys which were positive for trypanosomes in either blood or CSF at the end of this 14-day period were classified as treatment failures/not cured while those that were free of trypanosomes were classified as provisionally cured. After the 14-day EoT evaluations, parasitaemia examinations were continued twice weekly to ≥ 300 days post-LDD as described previously. Additionally, physical examinations and haematological assessments were carried out once weekly up to 28 days post-LDD, once every two weeks between 28 and 100 days post-LDD, and monthly thereafter until the end of the study as described previously. At 300 days post-LDD, monkeys were considered cured if they remained normal clinically and parasite-free in the blood and CSF. Pharmacokinetic outcomes were monitored for a minimum of 60 days post-LDD as described previously. To facilitate the collection of blood and CSF for these assessments, the monkeys were anaesthetised with an IM injection of ketamine HCl (10–15 mg/kg) and diazepam (0.5 mg/kg). Monkeys that relapsed, characterized by trypanosome recrudescence in the blood or CSF, were rescue-treated with melarsoprol. Melarsoprol (Mel B), supplied by the World Health Organization as a 3.6% (w/v) solution in propylene glycol, was administered intravenously at 3.6 mg/kg/day for 4 consecutive days.
Plasma samples were processed for quantification of DB868 and DB829 by high performance liquid chromatography-tandem mass spectrometry (HPLC-MS/MS) as described previously. CSF samples were processed in a manner similar to that of plasma samples.
Clinical and haematological data were analysed using Statview for Windows Version 5.0.1 (1995–1998; SAS Institute Inc., Cary, NC, USA). Repeated measures ANOVA, with Fisher’s PLSD post hoc test, was used to test the effect of trypanosome infection on haematologic parameters in comparison with respective baseline values (α = 0.05). In addition, the effects of IM DB829 and oral DB868 on these haematologic parameters in monkeys with confirmed second stage HAT were tested. Pharmacokinetic outcomes were recovered using traditional non-compartmental methods using Phoenix WinNonlin (version 6.2; Pharsight, Mountain View, CA, USA).

A short description of data set [3]: Tolerability of dose regimens in infected vervet monkeys. The format is in vivo, vervet monkey. The note with it: all IM DB829 and oral DB868 dose regimens.
Text: as §1, with “Monkeys that relapsed, characterized by trypanosome recrudescence in the blood or CSF, were rescue-treated with melarsoprol. Melarsoprol (Mel B), supplied by the World Health Organization as a 3.6% (w/v) solution in propylene glycol, was administered intravenously at 3.6 mg/kg/day for 4 consecutive days.” left out

The next data set concerns T. b. brucei GVR35. Details: method as in PMID 19620327. To be noted: cited from earlier work.
In data set [4] the test system is T. b. rhodesiense KETRI 2537. The note with it: cited from earlier work.
Details of data set [5]: method as in earlier work. The note with it: cited from earlier work.
Data set [6] deals with human intestinal cell line (Caco-2). Set-up: method as in PMID 12458675, PMID 15294005. To be noted: cited from earlier work.
The mark [7] stands for this setting: all oral DB868 regimens combined.
Where [8] appears, read: oral 10 mg/kg × 10 days, monkeys 688M, 690F, 695M, 697F, 10 mg/kg.
The mark [9] stands for this setting: oral 20 mg/kg × 10 days, monkeys 573F, 679F, 689M, 696M, 20 mg/kg.

Where “and” joins values, the source holds several entries; their conditions need not be identical. Equal values may be shown once. Entries after “also recorded” stand apart in the source; their conditions may differ. Read-outs that look alike come from different tables or passages of the source.

The values that follow come from paper PMC4318582, “Chemotherapy of Second Stage Human African Trypanosomiasis: Comparison between the Parenteral Diamidine DB829 and Its Oral Prodrug DB868 in Vervet Monkeys” (PLoS Neglected Tropical Diseases, 2015).

With `CON=C(N)c1ccc(-c2ccc(-c3ccc(C(N)=NOC)cn3)o2)cc1` [DB844], the “efficacy in murine models of first and second stage HAT” value in the data set with African trypanosomes was “fully curative”. For the same compound, the “cure rate against second stage HAT in non-human primates” value in the data set on T. b. rhodesiense is 3/7.

Turning to `CONC(=N)c1ccc(-c2ccc(-c3ccc(C(=N)NOC)cn3)o2)nc1` [DB868, 2,5-bis[5-(N-methoxyamidino)-2-pyridyl]furan], in data set [1] (setting [7]), the “Final efficacy assessment at 300 days post-LDD of DB868, Overall Results (combined cure rate)” value is recorded as 2/10. In [1] (setting [7]), the “Provisional efficacy at 100 days post-LDD of DB868, Overall Results” value is on record as 4/10. In addition, the “Provisional efficacy at EoT, Overall Results” value in data set [1] (setting [7]) is reported as 8/10. Further, the Time to relapse in data set [1] (oral 3 mg/kg × 10 days, 28–37 DPI, monkey 687M) is 14 days post-LDD; in data set [1] (oral 10 mg/kg × 10 days, 28–37 DPI, individual monkeys, 10 mg/kg), 56 days post-LDD and 28 days post-LDD; in [1] (oral 20 mg/kg × 10 days, 28–37 DPI, individual monkeys, 20 mg/kg), 161 days post-LDD and 133 days post-LDD and 77 days post-LDD. Moreover, the Cured/treated entry in data set [1] (oral 3 mg/kg × 10 days, 3 mg/kg) is “did not cure any monkey and did not achieve cure in any monkey and 0/2”; in [1] (oral 10 mg/kg × 10 days), 1/4; in data set [1] (oral 20 mg/kg × 10 days) it was 1/4. Besides, the “Provisional efficacy at EoT” value in data set [1] (oral 3 mg/kg × 10 days, monkeys 670F, 687M) was “Not cured”; in data set [1] (oral 10 mg/kg × 10 days, monkeys 688M, 690F, 695M, 697F), “Cured”; in [1] (oral 20 mg/kg × 10 days, monkeys 573F, 679F, 689M, 696M), “Cured”. The “drug dose after which brief period of aparasitaemia started” value in data set [1] (oral 3 mg/kg/day × 10 days, 34 DPI) came out at 7 drug dose. For the same compound, in data set [1] (oral 10 mg/kg × 10 days, 28–37 DPI), the “Time to initial clearance of trypanosomes from body fluids (blood and CSF)” value is 1 days post-LDD. The “Final efficacy assessment at 300 days post-LDD of DB868” value was “R and Cured” in data set [1] (setting [8]); “R and Cured” in data set [1] (setting [9]). The “Provisional efficacy at 100 days post-LDD of DB868” value was “R and Cured” in data set [1] (setting [8]); “R and Cured” in [1] (setting [9]). For the same compound, the “median (range) time to relapse” value in data set [1] (oral 10 mg/kg/day × 10 days) was 28 (28–56) days post-LDD; in data set [1] (oral 20 mg/kg/day × 10 days, 20 mg/kg/day), 133 (77–161) days post-LDD and 133 days post-LDD. Moreover, the monkeys relapsed in [1] (oral 10 mg/kg/day × 10 days) and in [1] (oral 20 mg/kg/day × 10 days) was 3/4 in each case. Further, in data set [1] (oral 10 mg/kg/day × 10 days, 34 DPI), the “day of dosing by which monkeys became blood parasite negative” value is ≤ 7 day of dosing. Besides, in data set [1] (oral 20 mg/kg/day × 10 days, 34 DPI), the “day of treatment by which monkeys became aparasitaemic (blood)” value is on record as ≤ 7 day of treatment. Also, the “decline of prodrug DB868 plasma concentrations” value in [2] (oral DB868, all monkeys, post-LDD) was “undetectable after 8 h”. Moreover, the “geometric mean plasma concentration (range) of prodrug DB868” value in [2] (oral DB868 3 mg/kg/day) is 120 (100–150) nmol/L; in data set [2] (oral DB868 10 mg/kg/day), 750 (420–1500) nmol/L; in data set [2] (oral DB868 20 mg/kg/day), 810 (370–1300) nmol/L. For the same compound, the “tolerability of dose regimens” value in [3] is on record as “well tolerated”. Further, the “efficacy in the murine model of second stage HAT” value in the data set with T. b. brucei GVR35 is reported as “fully curative”. Further, the “efficacy against first stage HAT in monkeys” value in [4] (oral) was “highly active; also recorded: fully curative”. Also, in data set [4] (oral), the “tolerability in monkeys, first stage HAT study” value is “well-tolerated”. Moreover, the tolerability in rats result in data set [5] is “better tolerated than pafuramidine”.

As for `Nc1nc(N)nc(Nc2ccc([As]3SCC(CO)S3)cc2)n1` (stereo not drawn) [melarsoprol, reference compound], the “rescue treatment of monkeys that relapsed after DB868” value in [1] (melarsoprol intravenously 3.6 mg/kg/day for 4 consecutive days, 3.6 mg/kg/day) is “successfully rescue-treated and 5/6”.

As for `CONC(=N)c1ccc(-c2ccc(-c3ccc(C(=N)NOC)cc3)o2)cc1` [pafuramidine, 2,5-bis (4-amidinophenyl)-furan-bis-O-methlylamidoxime], the “efficacy in murine models of first and second stage HAT” value in the data set on African trypanosomes was “fully curative”. Also, in data set [4] (oral administration), the “efficacy against first stage HAT in monkeys” value is listed as “fully curative”. For the same compound, the “cure rate against second stage HAT in non-human primates” value in the data set on T. b. rhodesiense is 0/3. Further, in data set [6], the “absorptive permeability compared with the active diamidine furamidine (DB75)” value was “improved absorptive permeability”.

On to `N=C(N)c1ccc(OCCCCCOc2ccc(C(=N)N)cc2)cc1` [pentamidine, reference compound], for which, in data set [4] (IM, monkeys, T. b. rhodesiense KETRI 2537, ref unpublished data, TRC-KARI), the “cure rate when treatment initiation was delayed to 14 days post-infection” value was 0/3. Moreover, in [4] (IM, monkeys), the “cure rate in first stage disease” value was 2/3.
